From the NIST ThermoML archive (doi:10.1016/j.fluid.2012.01.029)
± gives the expanded uncertainty stated by the source.

Settings: 293.15 K; 101.33 kPa; Liquid; Vibrating tube method

CN(CCO)CCO [N-methyldiethanolamine] gave a mass density of 1037.7 ± 0.3 kg/m3.
Work on NCCO [2-aminoethan-1-ol] yielded a mass density of 1017.9 ± 0.3 kg/m3.
